Results from US20230301300A1, “HERBICIDAL COMPOSITIONS” (SYNGENTA CROP PROTECTION AG, priority 2020, published 2023).

Legend:
Type in all cases: in vivo
Glycine max (GLXMA) = test: B2 Post-Emergence Efficacy - Test 2; details: 15 days after application; for Herbicidal activity GLXMA: 0-100 scale; for Herbicidal activity on a 0-100 scale, GLXMA: 0=no damage, 100=total kill
Description: (§1) Seeds of a variety of test species (see Table B1) were sown in standard soil in pots. After cultivation for 12 days (post-emergence) under controlled conditions in a glasshouse (at 24/18° C. or 20/16° C., at day/night; 16 hours light; 65% humidity), the plants were sprayed with an aqueous spray solution derived from the formulation of the technical active ingredient dissolved in IF50 (see Table B2 for composition) and adjuvant (Genapol X080) was added to the spray solution at a rate of 0.2% v/v.
(§2) After application, the test plants were grown in a glasshouse under controlled conditions (as above) and watered twice daily. Herbicidal activity was evaluated 15 days after application on a 0-100 scale. The results, where 0=no damage to test plant and 100=total kill of test plant are shown below in Tables 8 to 11.

Orysa sativa (ORYSA) = test: B2 Post-Emergence Efficacy - Test 2; details: 15 days after application; for Herbicidal activity ORYSA: 0-100 scale; for Herbicidal activity on a 0-100 scale, ORYSA: 0=no damage, 100=total kill
Description: as §1, §2

[1] = tested on: Abutilon theophrasti (ABUTH); test: B2 Post-Emergence Efficacy - Test 2; details: 15 days after application, 0-100 scale
Description: as §1, §2

Setaria faberi (SETFA) [2] = test: B2 Post-Emergence Efficacy - Test 2; details: 15 days after application, 0=no damage, 100=total kill
Description: as §1, §2

[3] = tested on: Brachiaria plantaginea (BRAPL); test: B2 Post-Emergence Efficacy - Test 2; details: 15 days after application, 0=no damage, 100=total kill
Description: as §1, §2

[4] = tested on: Echinochloa crus galli (ECHCG); test: B2 Post-Emergence Efficacy - Test 2; details: 15 days after application, 0=no damage, 100=total kill
Description: as §1, §2

Sinapis arvensis (SINAR) = test: B2 Post-Emergence Efficacy - Test 2; details: 15 days after application, 0-100 scale
Description: as §1, §2

[5] = tested on: Ipomoea hederacea (IPOHE); test: B2 Post-Emergence Efficacy - Test 2; details: 15 days after application, 0-100 scale
Description: as §1, §2

Avena fatua (AVEFA) = test: B2 Post-Emergence Efficacy - Test 2; details: 15 days after application, 0-100 scale
Description: as §1, §2

Hordeum vulgare (HORVW) = test: B2 Post-Emergence Efficacy - Test 2; details: 15 days after application, 0-100 scale
Description: as §1, §2

[6] = tested on: Amaranthus retroflexus (AMARE); test: B2 Post-Emergence Efficacy - Test 2; details: 15 days after application, 0-100 scale
Description: as §1, §2

Setaria faberi (SETFA) [7] = test: B1 Post-Emergence Efficacy - Test 1; details: 1000 g/ha, after 13 days, five point scale
In short: (§3)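 Post-emergence spray, 1000 g/ha, acetone/water 50:50 + 0.5% Tween 20, on plants 8 d after sowing in soil pots. Glasshouse 24/16° C., 14 h light, 65% humidity, watered twice daily. % damage at 13 d, five-point score.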

Lolium perenne (LOLPE) = test: B1 Post-Emergence Efficacy - Test 1; details: 1000 g/ha, after 13 days, five point scale
In short: as §3

[8] = tested on: Ipomoea hederacea (IPOHE); test: B1 Post-Emergence Efficacy - Test 1; details: 1000 g/ha, after 13 days, five point scale
In short: as §3

[9] = tested on: Amaranthus retoflexus (AMARE); test: B1 Post-Emergence Efficacy - Test 1; details: 1000 g/ha, after 13 days, five point scale
In short: as §3

Solanum nigrum (SOLNI) = test: B1 Post-Emergence Efficacy - Test 1; details: 1000 g/ha, after 13 days, five point scale
In short: as §3

[10] = tested on: Echinochloa crus-galli (ECHCG); test: B1 Post-Emergence Efficacy - Test 1; details: 1000 g/ha, after 13 days, five point scale
In short: as §3

## Cc1nn(C)c(=O)c(-c2c(F)ccc(Cl)c2CCc2ccc(Cl)cc2)c1OC(=O)C(C)C [Compound 1.089, [5-[3-chloro-2-[2-(4-chlorophenyl)ethyl]-6-fluoro-phenyl]-1,3-dimethyl-6-oxo-pyridazin-4-yl] 2-methylpropanoate]
Glycine max (GLXMA); 30 g/Ha
  Herbicidal activity GLXMA: 70
  Herbicidal activity on a 0-100 scale, GLXMA: 70
Glycine max (GLXMA); 60 g/Ha
  Herbicidal activity GLXMA: 80
  Herbicidal activity on a 0-100 scale, GLXMA: 80
Glycine max (GLXMA); 250 g/Ha
  Herbicidal activity GLXMA: 100
  Herbicidal activity on a 0-100 scale, GLXMA: 100
Glycine max (GLXMA); 500 g/Ha
  Herbicidal activity GLXMA: 100
  Herbicidal activity on a 0-100 scale, GLXMA: 100
Orysa sativa (ORYSA); 15 g/Ha
  Herbicidal activity ORYSA: 0
  Herbicidal activity on a 0-100 scale, ORYSA: 0
Orysa sativa (ORYSA); 30 g/Ha
  Herbicidal activity ORYSA: 0
  Herbicidal activity on a 0-100 scale, ORYSA: 0
Orysa sativa (ORYSA); 60 g/Ha
  Herbicidal activity ORYSA: 0
  Herbicidal activity on a 0-100 scale, ORYSA: 0
Orysa sativa (ORYSA); 125 g/Ha
  Herbicidal activity ORYSA: 10
  Herbicidal activity on a 0-100 scale, ORYSA: 10
Orysa sativa (ORYSA); 250 g/Ha
  Herbicidal activity ORYSA: 20
  Herbicidal activity on a 0-100 scale, ORYSA: 20
Orysa sativa (ORYSA); 500 g/Ha
  Herbicidal activity ORYSA: 50
  Herbicidal activity on a 0-100 scale, ORYSA: 50
[1]; 15 g/Ha
  Herbicidal activity ABUTH: 70
[1]; 30 g/Ha
  Herbicidal activity ABUTH: 90
[1]; 60 g/Ha
  Herbicidal activity ABUTH: 100
[1]; 125 g/Ha
  Herbicidal activity ABUTH: 100
[1]; 250 g/Ha
  Herbicidal activity ABUTH: 100
[1]; 500 g/Ha
  Herbicidal activity ABUTH: 100
Setaria faberi (SETFA) [2]; 15 g/Ha
  Herbicidal activity on a 0-100 scale, SETFA: 0
Setaria faberi (SETFA) [2]; 30 g/Ha
  Herbicidal activity on a 0-100 scale, SETFA: 20
Setaria faberi (SETFA) [2]; 60 g/Ha
  Herbicidal activity on a 0-100 scale, SETFA: 30
Setaria faberi (SETFA) [2]; 125 g/Ha
  Herbicidal activity on a 0-100 scale, SETFA: 60
Setaria faberi (SETFA) [2]; 250 g/Ha
  Herbicidal activity on a 0-100 scale, SETFA: 60
Setaria faberi (SETFA) [2]; 500 g/Ha
  Herbicidal activity on a 0-100 scale, SETFA: 80
[3]; 15 g/Ha
  Herbicidal activity on a 0-100 scale, BRAPL: 80
[3]; 30 g/Ha
  Herbicidal activity on a 0-100 scale, BRAPL: 90
[3]; 250 g/Ha
  Herbicidal activity on a 0-100 scale, BRAPL: 90
[3]; 500 g/Ha
  Herbicidal activity on a 0-100 scale, BRAPL: 90
[4]; 15 g/Ha
  Herbicidal activity on a 0-100 scale, ECHCG: 80
[4]; 30 g/Ha
  Herbicidal activity on a 0-100 scale, ECHCG: 80
[4]; 60 g/Ha
  Herbicidal activity on a 0-100 scale, ECHCG: 80
[4]; 125 g/Ha
  Herbicidal activity on a 0-100 scale, ECHCG: 90
[4]; 250 g/Ha
  Herbicidal activity on a 0-100 scale, ECHCG: 90
[4]; 500 g/Ha
  Herbicidal activity on a 0-100 scale, ECHCG: 100
Sinapis arvensis (SINAR); 15 g/Ha
  Herbicidal activity SINAR: 70
Sinapis arvensis (SINAR); 30 g/Ha
  Herbicidal activity SINAR: 80
Sinapis arvensis (SINAR); 60 g/Ha
  Herbicidal activity SINAR: 90
Sinapis arvensis (SINAR); 125 g/Ha
  Herbicidal activity SINAR: 90
Sinapis arvensis (SINAR); 250 g/Ha
  Herbicidal activity SINAR: 90
Sinapis arvensis (SINAR); 500 g/Ha
  Herbicidal activity SINAR: 90
[5]; 15 g/Ha
  Herbicidal activity IPOHE: 100
[5]; 30 g/Ha
  Herbicidal activity IPOHE: 100
[5]; 60 g/Ha
  Herbicidal activity IPOHE: 100
[5]; 125 g/Ha
  Herbicidal activity IPOHE: 100
[5]; 250 g/Ha
  Herbicidal activity IPOHE: 100
[5]; 500 g/Ha
  Herbicidal activity IPOHE: 100
Avena fatua (AVEFA); 15 g/Ha
  Herbicidal activity AVEFA: 30
Avena fatua (AVEFA); 30 g/Ha
  Herbicidal activity AVEFA: 70
Avena fatua (AVEFA); 60 g/Ha
  Herbicidal activity AVEFA: 70
Avena fatua (AVEFA); 125 g/Ha
  Herbicidal activity AVEFA: 80
Avena fatua (AVEFA); 250 g/Ha
  Herbicidal activity AVEFA: 90
Avena fatua (AVEFA); 500 g/Ha
  Herbicidal activity AVEFA: 90
Hordeum vulgare (HORVW); 15 g/Ha
  Herbicidal activity HORVW: 10
Hordeum vulgare (HORVW); 30 g/Ha
  Herbicidal activity HORVW: 10
Hordeum vulgare (HORVW); 60 g/Ha
  Herbicidal activity HORVW: 20
Hordeum vulgare (HORVW); 125 g/Ha
  Herbicidal activity HORVW: 20
Hordeum vulgare (HORVW); 250 g/Ha
  Herbicidal activity HORVW: 30
Hordeum vulgare (HORVW); 500 g/Ha
  Herbicidal activity HORVW: 60
[6]; 15 g/Ha
  Herbicidal activity AMARE: 80
[6]; 30 g/Ha
  Herbicidal activity AMARE: 80
[6]; 60 g/Ha
  Herbicidal activity AMARE: 90
[6]; 125 g/Ha
  Herbicidal activity AMARE: 100
[6]; 250 g/Ha
  Herbicidal activity AMARE: 100
[6]; 500 g/Ha
  Herbicidal activity AMARE: 100
Setaria faberi (SETFA) [7]
  percentage damage caused to the plant, SETFA: 5 (5=80-100%)
Lolium perenne (LOLPE)
  percentage damage caused to the plant, LOLPE: 5 (5=80-100%)
[8]
  percentage damage caused to the plant, IPOHE: 5 (5=80-100%)
[9]
  percentage damage caused to the plant, AMARE: 5 (5=80-100%)
Solanum nigrum (SOLNI)
  percentage damage caused to the plant, SOLNI: 5 (5=80-100%)
[10]
  percentage damage caused to the plant, ECHCG: 5 (5=80-100%)
